Reference: PubChem BioAssay AID1918953 (Molecular Pharmacology Branch, DTP, NCI, 2023)
Several values for one entry are separate records, joined by “and”; a condition that tells them apart may be missing. Equal values may be shown once.

Test system: MDA-MB-231 complex spheroid viability
Test: Anticancer human tumor MDA-MB-231/ATCC cell line growth inhibition;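 also: drug exposure lasted 7 days starting on day 3 of spheroid growth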
Conditions: for viability, T/C: stronger effect = lower value
Method in brief: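 Multicellular complex spheroids of tumor cells with human endothelial cells (HUVEC) and mesenchymal stem cells; the LSD1 inhibitor iadademstat was combined with standard-of-care or investigational agents. Top concentration at or near clinical Cmax, half-log dilutions; final DMSO ≤0.25%.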

[1] = curve of first compound, second compound 0.1 µM
[2] = curve of first compound, second compound 0.316 µM
[3] = curve of first compound, second compound 1 µM
[4] = curve of first compound, second compound 3.16 µM
[5] = curve of first compound, second compound 10 µM

COc1cc(C2c3cc4c(cc3C(OC3OC5COC(C)OC5C(O)C3O)C3COC(=O)C23)OCO4)cc(OC)c1O (configuration not stated) + NC1CC1c1ccc(-c2cccc(O)c2)cc1
IC50 [1]: 22.6 nM | IC50 [2]: 13.4 nM | IC50 [3]: 15.4 nM | IC50 [4]: < 9.49 nM | IC50 [5]: < 9.49 nM | viability, T/C (second compound 0.1 µM, first compound 0.00949 µM): 67.5% | viability, T/C (second compound 0.1 µM, first compound 0.03 µM): 43.7% | viability, T/C (second compound 0.1 µM, first compound 0.0949 µM): 28.4% | viability, T/C (second compound 0.1 µM, first compound 0.3 µM): 25.9% | viability, T/C (second compound 0.1 µM, first compound 0.949 µM): 15.5% | viability, T/C (second compound 0.1 µM, first compound 3 µM): 12% | viability, T/C (second compound 0.316 µM, first compound 0.00949 µM): 55% | viability, T/C (second compound 0.316 µM, first compound 0.03 µM): 38.7% | viability, T/C (second compound 0.316 µM, first compound 0.0949 µM): 27.1% | viability, T/C (second compound 0.316 µM, first compound 0.3 µM): 20.5% | viability, T/C (second compound 0.316 µM, first compound 0.949 µM): 14.2% | viability, T/C (second compound 0.316 µM, first compound 3 µM): 11.3% | viability, T/C (second compound 1 µM, first compound 0.00949 µM): 56.7% | viability, T/C (second compound 1 µM, first compound 0.03 µM): 41.7% | viability, T/C (second compound 1 µM, first compound 0.0949 µM): 24.9% | viability, T/C (second compound 1 µM, first compound 0.3 µM): 23% | viability, T/C (second compound 1 µM, first compound 0.949 µM): 14% | viability, T/C (second compound 1 µM, first compound 3 µM): 11.9% | viability, T/C (second compound 3.16 µM, first compound 0.00949 µM): 48.6% | viability, T/C (second compound 3.16 µM, first compound 0.03 µM): 32.3% | viability, T/C (second compound 3.16 µM, first compound 0.0949 µM): 23.5% | viability, T/C (second compound 3.16 µM, first compound 0.3 µM): 20.3% | viability, T/C (second compound 3.16 µM, first compound 0.949 µM): 14.7% | viability, T/C (second compound 3.16 µM, first compound 3 µM): 11.7% | viability, T/C (second compound 10 µM, first compound 0.00949 µM): 38.2% | viability, T/C (second compound 10 µM, first compound 0.03 µM): 25.5% | viability, T/C (second compound 10 µM, first compound 0.0949 µM): 24.9% | viability, T/C (second compound 10 µM, first compound 0.3 µM): 20.1% | viability, T/C (second compound 10 µM, first compound 0.949 µM): 11.6% | viability, T/C (second compound 10 µM, first compound 3 µM): 10%

CC1COCCN1c1cc(-c2ccnn2C)c2ccnc(-c3ccn[nH]3)c2n1 (configuration not stated) + NC1CC1c1ccc(-c2cccc(O)c2)cc1
IC50 [1]: < 3.16 nM | IC50 [2]: < 3.16 nM | IC50 [3]: < 3.16 nM | IC50 [4]: < 3.16 nM | IC50 [5]: < 3.16 nM | viability, T/C (second compound 0.1 µM, first compound 0.00316 µM): 38.1% | viability, T/C (second compound 0.1 µM, first compound 0.01 µM): 32% | viability, T/C (second compound 0.1 µM, first compound 0.0316 µM): 20.5% | viability, T/C (second compound 0.1 µM, first compound 0.1 µM): 16.4% | viability, T/C (second compound 0.1 µM, first compound 0.316 µM): 15.8% | viability, T/C (second compound 0.1 µM, first compound 1 µM): 21.4% | viability, T/C (second compound 0.316 µM, first compound 0.00316 µM): 32.1% | viability, T/C (second compound 0.316 µM, first compound 0.01 µM): 28.7% | viability, T/C (second compound 0.316 µM, first compound 0.0316 µM): 20.7% | viability, T/C (second compound 0.316 µM, first compound 0.1 µM): 16.6% | viability, T/C (second compound 0.316 µM, first compound 0.316 µM): 15.8% | viability, T/C (second compound 0.316 µM, first compound 1 µM): 22.5% | viability, T/C (second compound 1 µM, first compound 0.00316 µM): 33.5% | viability, T/C (second compound 1 µM, first compound 0.01 µM): 30.8% | viability, T/C (second compound 1 µM, first compound 0.0316 µM): 20.9% | viability, T/C (second compound 1 µM, first compound 0.1 µM): 15.3% | viability, T/C (second compound 1 µM, first compound 0.316 µM): 14.3% | viability, T/C (second compound 1 µM, first compound 1 µM): 24% | viability, T/C (second compound 3.16 µM, first compound 0.00316 µM): 33.4% | viability, T/C (second compound 3.16 µM, first compound 0.01 µM): 27.9% | viability, T/C (second compound 3.16 µM, first compound 0.0316 µM): 19.7% | viability, T/C (second compound 3.16 µM, first compound 0.1 µM): 16.9% | viability, T/C (second compound 3.16 µM, first compound 0.316 µM): 15.2% | viability, T/C (second compound 3.16 µM, first compound 1 µM): 22% | viability, T/C (second compound 10 µM, first compound 0.00316 µM): 25.7% | viability, T/C (second compound 10 µM, first compound 0.01 µM): 20.7% | viability, T/C (second compound 10 µM, first compound 0.0316 µM): 18.1% | viability, T/C (second compound 10 µM, first compound 0.1 µM): 16.2% | viability, T/C (second compound 10 µM, first compound 0.316 µM): 15% | viability, T/C (second compound 10 µM, first compound 1 µM): 20.5%

Nc1ncn(C2CC(O)C(CO)S2)c(=O)n1 (configuration not stated)
viability, T/C (compound 0.000949 µM): 90.3% and 85% | viability, T/C (compound 0.003 µM): 72.3% and 68.7% | viability, T/C (compound 0.00949 µM): 61% and 45.8% | viability, T/C (compound 0.03 µM): 37.2% and 31.3% | viability, T/C (compound 0.0949 µM): 20.2% and 19.9% | viability, T/C (compound 0.3 µM): 11.1% and 9.34% | IC50 (curve of compound): 14.8 nM and 8.3 nM
